Results on one compound are retold here after PMC5656517 (European journal of pharmaceutical sciences : official …, 2017).

Data set [1] deals with T1, CYP2B6 (Homo sapiens, UniProt P20813).
T1 sequence (P20813 1-491): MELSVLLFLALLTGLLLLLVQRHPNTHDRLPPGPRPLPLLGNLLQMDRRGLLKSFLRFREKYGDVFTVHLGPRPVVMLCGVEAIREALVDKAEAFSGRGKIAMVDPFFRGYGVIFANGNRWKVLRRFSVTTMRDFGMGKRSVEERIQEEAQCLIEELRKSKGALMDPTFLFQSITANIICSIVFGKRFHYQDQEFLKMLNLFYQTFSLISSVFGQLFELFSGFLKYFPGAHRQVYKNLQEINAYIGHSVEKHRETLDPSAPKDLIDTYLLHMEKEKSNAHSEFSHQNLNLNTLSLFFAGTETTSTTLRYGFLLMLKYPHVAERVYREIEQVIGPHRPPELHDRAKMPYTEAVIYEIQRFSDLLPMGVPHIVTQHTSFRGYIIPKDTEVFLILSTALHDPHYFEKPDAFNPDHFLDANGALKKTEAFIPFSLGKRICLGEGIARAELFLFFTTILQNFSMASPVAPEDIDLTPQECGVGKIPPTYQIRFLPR
As to the kind of experiment: Cocktail assay IC50 determination in human liver microsomes. The conditions noted are these: substrate bupropion, mean ± standard deviation. A general note: Liver microsomes are a subcellular fraction often used to study metabolism.

For data set [2], the target named is T2, CYP1A2 (Homo sapiens, UniProt P05177).
T2 sequence (P05177 1-516): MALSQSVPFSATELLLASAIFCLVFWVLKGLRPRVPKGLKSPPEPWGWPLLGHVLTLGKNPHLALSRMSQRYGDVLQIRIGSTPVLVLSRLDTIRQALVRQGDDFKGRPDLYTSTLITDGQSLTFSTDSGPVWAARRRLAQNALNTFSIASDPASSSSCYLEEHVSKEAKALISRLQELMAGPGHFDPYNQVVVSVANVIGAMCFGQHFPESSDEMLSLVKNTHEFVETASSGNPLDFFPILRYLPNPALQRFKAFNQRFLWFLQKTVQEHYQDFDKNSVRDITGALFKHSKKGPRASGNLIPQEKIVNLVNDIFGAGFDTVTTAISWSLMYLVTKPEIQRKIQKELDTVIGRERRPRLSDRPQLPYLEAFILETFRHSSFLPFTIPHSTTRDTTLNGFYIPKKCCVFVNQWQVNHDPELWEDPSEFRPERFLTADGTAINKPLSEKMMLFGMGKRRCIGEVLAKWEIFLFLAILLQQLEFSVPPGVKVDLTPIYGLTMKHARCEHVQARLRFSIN
As to the kind of experiment: Single concentration. To be noted: human liver microsomes.

Data set [3] addresses CYP2D6 (Homo sapiens, UniProt P10635). Put plainly: Cocktail assay IC50 determination in human liver microsomes. To be noted: substrate dextromethorphan, mean ± standard deviation.
The target in data set [4] is T3, CYP3A4 (Homo sapiens, UniProt P08684). As to the kind of experiment: Effect of washing to restore CYP3A4 activity, human liver microsomes. Format: in vitro ADME. The conditions noted are these: 50 µM, 30 min preincubation, washed 3 times, midazolam.
In data set [5] the target is T4, CYP2C8 (Homo sapiens, UniProt P10632).
T4 sequence (P10632 1-490): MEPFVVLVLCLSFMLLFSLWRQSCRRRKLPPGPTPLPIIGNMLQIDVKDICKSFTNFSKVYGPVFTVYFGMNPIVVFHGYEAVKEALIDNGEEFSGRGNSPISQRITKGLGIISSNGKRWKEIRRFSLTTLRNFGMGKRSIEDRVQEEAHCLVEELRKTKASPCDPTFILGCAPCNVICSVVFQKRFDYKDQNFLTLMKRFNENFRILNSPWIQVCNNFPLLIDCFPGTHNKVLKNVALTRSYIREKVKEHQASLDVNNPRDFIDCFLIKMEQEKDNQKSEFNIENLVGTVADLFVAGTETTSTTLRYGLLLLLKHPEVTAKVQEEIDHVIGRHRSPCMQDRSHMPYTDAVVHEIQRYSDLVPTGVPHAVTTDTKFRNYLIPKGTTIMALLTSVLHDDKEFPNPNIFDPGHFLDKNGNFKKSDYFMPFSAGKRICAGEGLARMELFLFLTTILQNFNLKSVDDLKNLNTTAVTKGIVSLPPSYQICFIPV
Put plainly: Single concentration. The conditions noted are these: human liver microsomes.

The target of data set [6] is T3, CYP3A4. Put plainly: Single concentration. To be noted: human liver microsomes.
Data set [7] deals with CYP2C9 (Homo sapiens, UniProt P11712). As to the kind of experiment: Cocktail assay IC50 determination in human liver microsomes.
Data set [8] addresses T2, CYP1A2. To be noted: ref He et al. (2015); cited from earlier work.
Data set [9] has as its target T2, CYP1A2. As to the kind of experiment: Cocktail assay IC50 determination in human liver microsomes. The conditions noted are these: substrate phenacetin, mean ± standard deviation.

SMILES strings stand for the structures. In brackets after ≈: the same amount, converted by molar mass.

T3 sequence (P08684 whole entry): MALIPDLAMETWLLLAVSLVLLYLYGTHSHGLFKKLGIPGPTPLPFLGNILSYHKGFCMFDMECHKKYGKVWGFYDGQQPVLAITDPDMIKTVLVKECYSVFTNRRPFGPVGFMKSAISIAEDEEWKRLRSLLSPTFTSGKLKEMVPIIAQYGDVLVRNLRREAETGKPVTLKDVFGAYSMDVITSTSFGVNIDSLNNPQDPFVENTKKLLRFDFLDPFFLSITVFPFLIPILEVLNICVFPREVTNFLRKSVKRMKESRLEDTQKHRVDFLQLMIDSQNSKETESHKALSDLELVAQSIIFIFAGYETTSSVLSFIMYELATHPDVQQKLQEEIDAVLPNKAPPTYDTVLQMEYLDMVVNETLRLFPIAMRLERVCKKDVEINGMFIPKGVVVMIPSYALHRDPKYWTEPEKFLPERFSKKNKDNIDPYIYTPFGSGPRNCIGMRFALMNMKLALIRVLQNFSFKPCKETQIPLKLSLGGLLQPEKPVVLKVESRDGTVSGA
CYP2C9, sequence (P11712 whole entry): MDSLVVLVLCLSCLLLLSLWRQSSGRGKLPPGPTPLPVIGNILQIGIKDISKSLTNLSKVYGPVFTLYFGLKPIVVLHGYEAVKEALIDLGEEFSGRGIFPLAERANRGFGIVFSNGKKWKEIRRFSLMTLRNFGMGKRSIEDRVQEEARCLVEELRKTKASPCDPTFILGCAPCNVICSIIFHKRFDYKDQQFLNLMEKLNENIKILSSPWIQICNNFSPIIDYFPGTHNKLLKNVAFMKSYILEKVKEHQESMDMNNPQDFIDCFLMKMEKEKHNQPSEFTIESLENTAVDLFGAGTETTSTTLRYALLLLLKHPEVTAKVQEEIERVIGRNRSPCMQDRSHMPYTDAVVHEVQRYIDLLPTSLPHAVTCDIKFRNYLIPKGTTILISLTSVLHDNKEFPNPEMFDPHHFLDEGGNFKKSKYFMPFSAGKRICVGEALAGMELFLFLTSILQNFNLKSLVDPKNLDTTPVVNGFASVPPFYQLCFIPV
CYP2D6, sequence (P10635 whole entry): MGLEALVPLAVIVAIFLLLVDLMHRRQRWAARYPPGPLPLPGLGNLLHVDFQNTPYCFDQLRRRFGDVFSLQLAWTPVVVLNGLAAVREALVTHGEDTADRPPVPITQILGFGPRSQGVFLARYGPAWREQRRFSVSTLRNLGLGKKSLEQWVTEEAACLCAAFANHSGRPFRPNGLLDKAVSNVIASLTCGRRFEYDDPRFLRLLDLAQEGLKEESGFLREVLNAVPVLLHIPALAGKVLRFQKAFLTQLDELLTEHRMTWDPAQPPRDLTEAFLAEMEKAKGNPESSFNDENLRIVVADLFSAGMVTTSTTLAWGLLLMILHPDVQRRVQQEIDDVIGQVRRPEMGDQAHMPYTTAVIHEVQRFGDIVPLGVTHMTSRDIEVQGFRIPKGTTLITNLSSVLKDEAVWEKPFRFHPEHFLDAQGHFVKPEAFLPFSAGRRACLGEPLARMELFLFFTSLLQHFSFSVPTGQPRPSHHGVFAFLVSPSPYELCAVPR

For the compound `C=CC(C)(C)c1cc(/C=C/C(=O)c2ccc(O)cc2)c(OC)cc1O` [Licochalcone A, licochalcone A], the “IC50, CYP2B6” value in data set [1] was 17.96 ± 4.58 µg/mL (≈ 53.1 µM). Also, in [2], the “inhibition of CYP1A2 at 10 µM, in words” value is “weakly inhibited”. In addition, the “IC50, CYP2D6” value in data set [3] amounted to 17.23 ± 1.68 µg/mL (≈ 50.9 µM). Further, in data set [4], the “remaining enzyme activity after washing out the inhibitor” value stood at 57%. Further, the “inhibition of CYP2C8 at 10 µM, in words” value in [5] was “strongly inhibited”. Moreover, the “inhibition of CYP3A4 (testosterone) at 10 µM, in words” value in [6] is given as “moderate inhibitor”. Moreover, the “IC50, CYP2C9” value in [7] (lower end of the range of IC50 values) is recorded as “high nM levels”; in data set [7] (substrate tolbutamide, mean ± standard deviation) it was 0.78 ± 0.09 µg/mL (≈ 2.3 µM). Further, the “inhibition of CYP1A2, in words” value in [8] is reported as “strongly inhibited”. Also, the “IC50, CYP1A2” value in [9] came to 12.40 ± 3.47 µg/mL (≈ 36.6 µM).
